The values that follow come from US11485740B2, “Inhibitors of TRPC6” (Boehringer Ingelheim International GmbH, priority 2018, dated 2022).

SMILES strings stand for the structures.

This experiment has as its target T1, human TRPC6 (Homo sapiens, UniProt Q9Y210).
T1 construct: expressed in transfected cells
T1 sequence (Q9Y210 1-931): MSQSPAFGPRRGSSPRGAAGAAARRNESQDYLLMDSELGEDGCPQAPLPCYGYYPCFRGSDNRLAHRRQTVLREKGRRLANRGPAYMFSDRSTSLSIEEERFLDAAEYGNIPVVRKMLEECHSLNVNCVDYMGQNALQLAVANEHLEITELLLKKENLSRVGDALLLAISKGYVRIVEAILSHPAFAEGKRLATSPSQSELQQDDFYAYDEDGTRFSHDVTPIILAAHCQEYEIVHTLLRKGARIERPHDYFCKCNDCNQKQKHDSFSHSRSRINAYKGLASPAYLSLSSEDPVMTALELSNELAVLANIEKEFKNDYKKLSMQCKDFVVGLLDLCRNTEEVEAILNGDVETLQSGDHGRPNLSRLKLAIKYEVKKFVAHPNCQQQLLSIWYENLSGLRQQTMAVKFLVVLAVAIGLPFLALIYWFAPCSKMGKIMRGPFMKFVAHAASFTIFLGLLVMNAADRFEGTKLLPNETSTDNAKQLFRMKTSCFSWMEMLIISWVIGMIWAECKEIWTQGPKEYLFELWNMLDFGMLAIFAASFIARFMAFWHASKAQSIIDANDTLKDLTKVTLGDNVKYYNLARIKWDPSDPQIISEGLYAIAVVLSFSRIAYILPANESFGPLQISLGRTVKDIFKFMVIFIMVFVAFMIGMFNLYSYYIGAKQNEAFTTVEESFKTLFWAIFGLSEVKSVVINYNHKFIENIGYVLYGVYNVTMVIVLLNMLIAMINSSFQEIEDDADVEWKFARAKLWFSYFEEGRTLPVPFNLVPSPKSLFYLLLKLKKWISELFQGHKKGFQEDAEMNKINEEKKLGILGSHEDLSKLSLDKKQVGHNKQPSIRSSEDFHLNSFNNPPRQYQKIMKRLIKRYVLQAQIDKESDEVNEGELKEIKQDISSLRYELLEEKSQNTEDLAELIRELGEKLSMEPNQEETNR
As to the kind of experiment: High throughput screening assay: Fluo4/AM calcium fluorescence in HEK293/TREx cells expressing human TRPC6, agonist GSK1702934A (single concentration 10 μM and IC50 curves). The experiment is classed as cell-based. Conditions: antagonist effect against human TRPC6, 7 concentrations 20 μM to 0.027 μM, triplicate. The source says:
High Throughput Screening Assay
This screening assay measures human TRPC6 (transient receptor potential cation channel, subfamily C, member 6) ion channel activation via addition either of the commercially available DAG ligand analogue OAG (1-oleoyl-2-acetyl-sn-glycerol) or of the TRPC6 agonist 1-[1-(4,5,6,7,8-pentahydrocyclohepta[2,1-d]thiophen-2-ylcarbonyl)-4-piperidyl]-3-hydrobenzimidazol-2-one (GSK1702934A). The assay utilizes a fluorescent calcium sensor 4-(6-Acetoxymethoxy-2,7-difluoro-3-oxo-9-xanthenyl)-4′-methyl-2,2′-(ethylenedioxy)dianiline-N,N,N′,N′-tetraacetic acid tetrakis(acetoxymethyl) ester (Fluo4/AM) dye from Molecular Devices. Changes (increases) in intracellular calcium concentration as measured by the fluorescent signal increase provide a measurement of channel activity.
The commercially available HEK293/TREx line (Invitrogen) was stably transfected with a human TRPC6 construct and screened by conventional calcium imaging to find clones with human TRPC6 expression following stimulation with 1 μg/ml tetracycline. These cells were maintained in the growth medium recommended by the manufacturer supplemented with 100 μg/ml hygromycin to promote retention of the human TRPC6 construct. After growing to near confluency, cells were plated at a density of ^˜35,000 cells/well in 384 well CellBind plates (Corning) in the presence of 1 μg/ml tetracycline, and allowed to grow for 20-30 hrs. A nearly confluent monolayer resulted. Growth media was removed from the wells and cells were then loaded with […] Fluo4/AM diluted in Ringer's Solution (6.5 g NaCl, 0.42 g KCl, 0.25 g CaCl2) and 0.2 g of sodium bicarbonate; pH 7.4) supplemented with 1% Pluronic F-127 to a final concentration of 0.5 μM and incubated for 60 min, at room temperature. Dye solution was then removed from the cells by inverting plates with a sharp flick, and replaced with 25 μl Ringer's. Following ^˜0.5 hour for recovery from loading, cells were assayed using the Hamamatsu FDSS 6000 system, which permitted illumination at 485 nm. Frames were acquired at a rate of 0.2 Hz. During the assay, the plates were continuously vortexed, with pipette mixing of wells following addition of each reagent. For the screening assay, 26 μl of a diluted compound stock (at 50 μM) was added to each well for 2 minutes following the collection of a short (4 frame) baseline. 13 μl of agonist solution consisting of 125 nM GSK1702934A diluted in high-Ca2+Ringer solution (containing 90 mM Ca2+) was then added to each well, achieving a final concentration of 20 mM Ca2+ and 10 μM test compound. Data was collected for ^˜3 minutes following addition of high Ca2+Ringer. The fluorescent intensity observed at a particular timepoint for each well was divided by the initial fluorescent intensity for that well and the overall response was determined by averaging the resulting fluorescent ratio of the last 4 frames acquired during the experiment excepting the final frame. Negative and Positive controls were included on each plate. Negative controls wells consisted of HEK293/TREx TRPC6 cells exposed to assay buffer and agonist solution, but no test compound. Positive control consisted of wells consisted of HEK293/TREx TRPC6 cells exposed to 25 μM 3-[(2-chlorophenoxy)methyl]phenyl piperidyl ketone (Chembridge) diluted in Ringer's solution and agonist solution. These controls defined zero percent and 100 percent block respectively, and intensity of each well was normalized to these values.
Compounds were tested in triplicate at all concentrations. Standard software was used to fit IC50 curves.
On to `COc1cc(C(=O)N2CCC(c3ccc(N)nn3)CC2)ncc1-c1ccc(OCC2CC2)cc1` [Compound 17, [4-(6-Amino-pyridazin-3-yl)-piperidin-1-yl]-[5-(4-cyclopropylmethoxy-phenyl)-4-methoxy-pyridin-2-yl]-methanone], for which the IC50 was 0.075 µM.
The figure for `Nc1ccc(C2CCN(C(=O)c3ccc(-c4ccc(F)cc4)cc3)CC2)nn1` [Compound 7, [4-(6-Amino-pyridazin-3-yl)-piperidin-1-yl]-(4′-fluoro-biphenyl-4-yl)-methanone] is 3.4 µM.
The figure for `CC[C@H](C)Oc1ccc(-c2ccc(C(=O)N3CCC(c4ccc(N)nn4)CC3)cc2OC)cn1` [Compound 75, [4-(6-Amino-pyridazin-3-yl)-piperidin-1-yl]-{4-[6-((S)-sec-butoxy)-pyridin-3-yl]-3-methoxy-phenyl}-methanone] is 0.091 µM; for `COc1cc(C(=O)N2CCC(c3ccc(N)nn3)CC2)ccc1-c1ccc(C(F)(F)F)cc1` [Compound 55, [4-(6-Amino-pyridazin-3-yl)-piperidin-1-yl]-(2-methoxy-4′-trifluoromethyl-biphenyl-4-yl)-methanone] it is 0.43 µM.
For `COc1cc(C(=O)N2CCC(c3ccc(N)nn3)CC2)ncc1-c1ccc(F)c(OCC(F)(F)F)c1` [Compound 15, [4-(6-Amino-pyridazin-3-yl)-piperidin-1-yl]-{5-(4-fluoro-3-(2,2,2-trifluoro-ethoxy)-phenyl]-4-methoxy-pyridin-2-yl}-methanone], the 50% inhibitory concentration (IC50) came out at 1.7 µM.
Then `COc1cc(C(=O)N2CCC(c3nnc(N)cc3C)CC2)ncc1-c1ccc(C(F)(F)F)cc1` [Compound 88, [4-(6-Amino-4-methyl-pyridazin-3-yl)-piperidin-1-yl]-[4-methoxy-5-(4-trifluoromethyl-phenyl)-pyridin-2-yl]-methanone], with 0.28 µM; and `COc1cc(C(=O)N2CCC(c3ccc(N)nn3)CC2)ncc1-c1cnc(OCC(F)(F)F)nc1` [Compound 54], with 0.83 µM.
With `COC[C@H]1CN(c2cnc(N)cc2OC)CCN1C(=O)c1cc(OC)c(-c2ccc(F)cc2)cn1` [Compound 98, [(R)-4-(6-Amino-4-methoxy-pyridin-3-yl)-2-methoxymethyl-piperazin-1-yl]-[5-(4-fluoro-phenyl)-4-methoxy-pyridin-2-yl]-methanone], the IC50 is 0.2 µM.
`COc1cc(C(=O)N2CCC(c3ccc(N)nn3)CC2)ccc1-c1ccc(OCC(F)(F)F)cc1` [Compound 58, [4-(6-Amino-pyridazin-3-yl)-piperidin-l-yl]-[2-methoxy-4′-(2,2,2-trifluoro-ethoxy)-biphenyl-4-yl]-methanone]: the IC50 worked out at 0.081 µM.
Then `COc1cc(C(=O)N2CCN(c3ccc(N)nc3)CC2)ncc1-c1ccccc1` [Compound 68, 5-[4-(4-Methoxy-5-phenylpyridine-2-carbonyl)piperazin-1-yl]pyridin-2-amine], with 0.039 µM.
On to `COc1cc(C(=O)N2CCC(c3ccc(N)nn3)CC2)ncc1-c1ccc(C(F)F)cc1` [Compound 38, [4-(6-Amino-pyridazin-3-yl)-piperidin-1-yl]-[5-(4-difluoromethyl-phenyl)-4-methoxy-pyridin-2-yl]-methanone], for which the IC50 was found to be 0.18 µM.
`COc1cccc(-c2ccc(C(=O)N3CCC(c4ccc(N)nn4)CC3)cc2)c1` [Compound 9, [4-(6-Amino-pyridazin-3-yl)-piperidin-1-yl]-(3′-methoxy-biphenyl-4-yl)-methanone]: the 50% inhibitory concentration (IC50) is 5.4 µM.
On to `COc1cc(-c2ccc(C(F)(F)F)cc2)ccc1C(=O)N1CCC(c2ccc(N)nn2)CC1` [Compound 66, [4-(6-Amino-pyridazin-3-yl)-piperidin-1-yl]-(3-methoxy-4′-trifluoromethyl-biphenyl-4-yl)-methanone], for which the IC50 came to 0.52 µM.
Take `COc1cc(C(=O)N2CCC(c3ccc(N)nn3)CC2)ncc1-c1ccc(C(F)(F)F)nc1` [Compound 42]: the half-inhibitory concentration (IC50) is 0.7 µM.
As to `COc1cc(C(=O)N2CCC(c3ccc(N)nn3)CC2)ncc1-c1ccc(C2CC2)nc1` [Compound 43, [4-(6-Amino-pyridazin-3-yl)-piperidin-1-yl]-(6′-cyclopropyl-4-methoxy-[3,3′]bipyridinyl-6-yl)-methanone], the IC50 came out at 0.39 µM.
`Nc1ccc(C2CCN(C(=O)c3ccc4c(c3)oc3ccccc34)CC2)nn1` [Compound 11, [4-(6-Amino-pyridazin-3-yl)-piperidin-1-yl]-dibenzofuran-3-yl-methanone]: the IC50 amounted to 2 µM.
In the case of `COc1cc(C(=O)N2CCC(c3ccc(N)nn3)CC2)ccc1-c1ccc(OCC2(CF)CC2)nc1` [Compound 80, [4-(6-Amino-pyridazin-3-yl)-piperidin-1-yl]-{4-[6-(1-fluoromethyl-cyclopropylmethoxy)-pyridin-3-yl]-3-methoxy-phenyl}-methanone], the IC50 turned out to be 0.13 µM.
As for `Nc1ccc(N2CCN(C(=O)c3ccc(-c4ccc(C(F)(F)F)cc4)cc3)CC2)cn1` [Compound 12, [4-(6-Amino-pyridin-3-yl)-piperazin-1-yl]-(4′-trifluoromethyl-biphenyl-4-yl)-methanone], the 50% inhibitory concentration (IC50) was determined as 2.4 µM.
For `CCc1ccc(-c2ccc(C(=O)N3CCC(c4ccc(N)nn4)CC3)cc2)cc1` [Compound 2, [4-(6-Amino-pyridazin-3-yl)-piperidin-1-yl]-(4′-ethyl-biphenyl-4-yl)-methanone], the IC50 was found to be 2 µM.
For `COC[C@H]1CN(c2cnc(N)cc2OC)CCN1C(=O)c1cc(OC)c(-c2ccc(C(F)(F)F)cc2)cn1` [Compound 99, [(R)-4-(6-Amino-4-methoxy-pyridin-3-yl)-2-methoxymethyl-piperazin-1-yl]-[4-methoxy-5-(4-trifluoromethyl-phenyl)-pyridin-2-yl]-methanone], the IC50 stood at 0.3 µM.
`COc1cc(C(=O)N2CCC(c3ccc(N)nn3)CC2)ncc1-c1ccc(Cl)cc1` [Compound 40, [4-(6-Amino-pyridazin-3-yl)-piperidin-1-yl]-[5-(4-chloro-phenyl)-4-methoxy-pyridin-2-yl]-methanone]: the IC50 was 0.073 µM.
With `COc1cc(C(=O)N2CCN(c3cnc(N)cc3C)C[C@@H]2CO)ncc1-c1ccccc1` [Compound 94, [(R)-4-(6-Amino-4-methyl-pyridin-3-yl)-2-hydroxymethyl-piperazin-1-yl]-(4-methoxy-5-phenyl-pyridin-2-yl)-methanone], the IC50 stood at 0.027 µM.
For `COc1cc(C(=O)N2CCC(c3ccc(N)nn3)CC2)ncc1-c1ccc(C)c(F)c1` [Compound 34, [4-(6-Amino-pyridazin-3-yl)-piperidin-1-yl]-[5-(3-fluoro-4-methyl-phenyl)-4-methoxy-pyridin-2-yl]-methanone], the IC50 came to 0.1 µM.

By IC50 is commonly meant the concentration at which inhibition is half-maximal.
